# Assay results from ChEMBL document CHEMBL1275247, “Pharmacokinetics and safety of CXA-101, a new antipseudomonal cephalosporin, in healthy adult male and female subjects receiving single- and multiple-dose intravenous infusions” (Antimicrob Agents Chemother, 2010).
# Columns and labels:
# [1] = Cmax in healthy human at 1000 mg, iv administered as single dose as 1 hr iv infusion; type: ADME, organism-based; design: dose 1000 mg, route intravenous; conditions: in vivo
# [2] = Cmax in healthy human at 2000 mg, iv administered as single dose as 1 hr iv infusion; type: ADME, organism-based; design: dose 2000 mg, route intravenous; conditions: in vivo
# [3] = Tmax in healthy human at 500 mg, iv administered as single dose as 1 hr iv infusion; type: ADME, organism-based; conditions: in vivo
# [4] = Tmax in healthy human at 1500 mg, iv administered as single dose as 1 hr iv infusion; type: ADME, organism-based; conditions: in vivo
# [5] = Tmax in healthy human at 2000 mg, iv administered as single dose as 1 hr iv infusion; type: ADME, organism-based; conditions: in vivo
# [6] = AUC (0 to infinity) in healthy human at 1000 mg, iv administered as single dose as 1 hr iv infusion; type: ADME, organism-based; design: dose 1000 mg, route intravenous, time infinity; conditions: plasma
# [7] = AUC (0 to infinity) in healthy human at 1500 mg, iv administered as single dose as 1 hr iv infusion; type: ADME, organism-based; design: dose 1500 mg, time infinity, route intravenous; conditions: plasma
# [8] = AUC (0 to infinity) in healthy human at 2000 mg, iv administered as single dose as 1 hr iv infusion; type: ADME, organism-based; design: dose 2000 mg, route intravenous, time infinity; conditions: plasma
# [9] = Clearance in healthy human at 500 mg, iv administered as single dose as 1 hr iv infusion; type: ADME, organism-based; conditions: in vivo
# [10] = Renal clearance in healthy human at 1000 mg, iv administered as single dose as 1 hr iv infusion; type: ADME, organism-based, Kidney; conditions: in vivo, read-out: CL_renal
# [11] = Renal clearance in healthy human at 2000 mg, iv administered as single dose as 1 hr iv infusion; type: ADME, organism-based, Kidney; conditions: in vivo, read-out: CL_renal
# [12] = Volume of distribution at steady state in healthy human at 250 mg, iv administered as single dose as 1 hr iv infusion; type: ADME, organism-based; conditions: in vivo
# [13] = Drug recovery in urine of healthy human at 2000 mg, iv administered as single dose as 1 hr iv infusion after 24 hrs; type: ADME, organism-based; conditions: read-out: Activity
# [14] = Half-life in plasma of healthy human 1000 mg administered as single ascending dose, iv for 1 hr infusion; type: ADME, organism-based
# [15] = Half-life in plasma of healthy human 1500 mg administered as single ascending dose, iv for 1 hr infusion; type: ADME, organism-based
# [16] = Half-life in plasma of healthy human 2000 mg administered as single ascending dose, iv for 1 hr infusion; type: ADME, organism-based
# [17] = Mean residence time in healthy human at 250 mg, iv administered as single dose as 1 hr iv infusion; type: ADME, organism-based; conditions: in vivo
# [18] = Mean residence time in healthy human at 2000 mg, iv administered as single dose as 1 hr iv infusion; type: ADME, organism-based; conditions: in vivo
# Homo sapiens [19] = assay: Toxicity in healthy human assessed as occurrence of somnolence at 1000 mg, iv administered as single dose as 1 hr iv infusion; type: organism-based; conditions: in vivo
# Homo sapiens [20] = assay: Toxicity in healthy human assessed as occurrence of diarrhea at 500 mg, iv administered as 1 hr infusion every 8 hrs for 10 days; type: organism-based; conditions: in vivo
# Homo sapiens [21] = assay: Toxicity in healthy human assessed as occurrence of paraesthesia at 500 mg, iv administered as 1 hr infusion every 8 hrs for 10 days; type: organism-based; conditions: in vivo
# [22] = Cmax in healthy human at 500 mg, iv administered as 1 hr infusion every 8 hrs for 10 days measured on day 1; type: ADME, organism-based; design: dose 500 mg, route intravenous; conditions: in vivo
# [23] = Cmax in healthy human at 1000 mg, iv administered as 1 hr infusion every 8 hrs for 10 days measured on day 1; type: ADME, organism-based; design: dose 1000 mg, route intravenous; conditions: in vivo
# [24] = Tmax in healthy human at 500 mg, iv administered as 1 hr infusion every 8 hrs for 10 days measured on day 1; type: ADME, organism-based; conditions: in vivo
# [25] = Tmax in healthy human at 1000 mg, iv administered as 1 hr infusion every 8 hrs for 10 days measured on day 1; type: ADME, organism-based; conditions: in vivo
# [26] = AUC (0 to infinity) in healthy human at 500 mg, iv administered as 1 hr infusion every 8 hrs for 10 days measured on day 1; type: ADME, organism-based; design: dose 500 mg, route intravenous, time infinity; conditions: plasma
# [27] = AUC (0 to infinity) in healthy human at 500 mg, iv administered as 1 hr infusion every 8 hrs for 10 days measured on day 10; type: ADME, organism-based; design: dose 500 mg, time infinity, route intravenous; conditions: plasma
# [28] = AUC (0 to infinity) in healthy human at 1000 mg, iv administered as 1 hr infusion every 8 hrs for 10 days measured on day 10; type: ADME, organism-based; design: dose 1000 mg, time infinity, route intravenous; conditions: plasma
# [29] = Clearance in healthy human at 500 mg, iv administered as 1 hr infusion every 8 hrs for 10 days measured on day 10; type: ADME, organism-based; conditions: in vivo
# [30] = Clearance in healthy human at 1000 mg, iv administered as 1 hr infusion every 8 hrs for 10 days measured on day 1; type: ADME, organism-based; conditions: in vivo
# [31] = Clearance in healthy human at 1500 mg, iv administered as 1 hr infusion every 12 hrs for 10 days measured on day 1; type: ADME, organism-based; conditions: in vivo
# [32] = Clearance in healthy human at 1500 mg, iv administered as 1 hr infusion every 12 hrs for 10 days measured on day 10; type: ADME, organism-based; conditions: in vivo
# [33] = Renal clearance in healthy human at 500 mg, iv administered as 1 hr infusion every 8 hrs for 10 days measured on day 1; type: ADME, organism-based, Kidney; conditions: in vivo, read-out: CL_renal
# [34] = Renal clearance in healthy human at 500 mg, iv administered as 1 hr infusion every 8 hrs for 10 days measured on day 10; type: ADME, organism-based, Kidney; conditions: in vivo, read-out: CL_renal
# [35] = Renal clearance in healthy human at 1500 mg, iv administered as 1 hr infusion every 12 hrs for 10 days measured on day 1; type: ADME, organism-based, Kidney; conditions: in vivo, read-out: CL_renal
# [36] = Renal clearance in healthy human at 1500 mg, iv administered as 1 hr infusion every 12 hrs for 10 days measured on day 10; type: ADME, organism-based, Kidney; conditions: in vivo, read-out: CL_renal
# [37] = Volume of distribution at steady state in healthy human at 1000 mg, iv administered as 1 hr infusion every 8 hrs for 10 days measured on day 1; type: ADME, organism-based; conditions: in vivo
# [38] = Volume of distribution at steady state in healthy human at 1500 mg, iv administered as 1 hr infusion every 12 hrs for 10 days measured on day 1; type: ADME, organism-based; conditions: in vivo
# [39] = Volume of distribution at steady state in healthy human at 1500 mg, iv administered as 1 hr infusion every 12 hrs for 10 days measured on day 10; type: ADME, organism-based; conditions: in vivo
# [40] = Half-life in plasma of healthy human 500 mg, iv administered as 1 hr infusion every 8 hrs for 10 days measured on day 10; type: ADME, organism-based
# [41] = Half-life in plasma of healthy human 1500 mg, iv administered as 1 hr infusion every 12 hrs for 10 days measured on day 10; type: ADME, organism-based
# [42] = Mean residence time in healthy human at 500 mg, iv administered as 1 hr infusion every 8 hrs for 10 days measured on day 1; type: ADME, organism-based; conditions: in vivo
# [43] = Mean residence time in healthy human at 500 mg, iv administered as 1 hr infusion every 8 hrs for 10 days measured on day 10; type: ADME, organism-based; conditions: in vivo
# [44] = Mean residence time in healthy human at 1000 mg, iv administered as 1 hr infusion every 8 hrs for 10 days measured on day 1; type: ADME, organism-based; conditions: in vivo
# [45] = Cmax in healthy human at 250 mg, iv administered as single dose as 1 hr iv infusion; type: ADME, organism-based; design: dose 250 mg, route intravenous; conditions: in vivo
# [46] = Cmax in healthy human at 500 mg, iv administered as single dose as 1 hr iv infusion; type: ADME, organism-based; design: dose 500 mg, route intravenous; conditions: in vivo
smiles,measurement,setting,value
Cn1c(N)c(NC(=O)NCCN)c[n+]1CC1=C(C(=O)O)N2C(=O)[C@@H](NC(=O)/C(=N\OC(C)(C)C(=O)[O-])c3nsc(N)n3)[C@H]2SC1 [CEFTOLOZANE],Cmax,[1],58.4 µg/mL
same,Cmax,[2],128 µg/mL
same,Tmax,[3],1.03 h
same,Tmax,[4],1.03 h
same,Tmax,[5],1.06 h
same,AUC(0-inf),[6],152 µg·h/mL
same,AUC(0-inf),[7],243 µg·h/mL
same,AUC(0-inf),[8],344 µg·h/mL
same,clearance,[9],99.1 mL/min
same,CL renal at 1 h,[10],93.4 mL/min
same,CL renal at 1 h,[11],92.9 mL/min
same,Vd,[12],13.1 L
same,dose excreted at 24 h,[13],97.7%
same,half-life,[14],135 min
same,half-life,[15],157 min
same,half-life,[16],147 min
same,MRT,[17],2.09 h
same,MRT,[18],2.54 h
same,Activity,Homo sapiens [19],Non-toxic
same,Activity,Homo sapiens [20],Non-toxic
same,Activity,Homo sapiens [21],Non-toxic
same,Cmax,[22],34300 ng/mL
same,Cmax,[23],52.8 µg/mL
same,Tmax,[24],1.03 h
same,Tmax,[25],1.03 h
same,AUC(0-inf),[26],88100 ng·h/mL
same,AUC(0-inf),[27],82900 ng·h/mL
same,AUC(0-inf),[28],143 µg·h/mL
same,clearance,[29],101 mL/min
same,clearance,[30],112 mL/min
same,clearance,[31],114 mL/min
same,clearance,[32],121 mL/min
same,CL renal,[33],78.4 mL/min
same,CL renal,[34],87.6 mL/min
same,CL renal,[35],119 mL/min
same,CL renal,[36],127 mL/min
same,Vd,[37],17.8 L
same,Vd,[38],18.1 L
same,Vd,[39],18.1 L
same,half-life,[40],132 min
same,half-life,[41],140 min
same,MRT,[42],2.42 h
same,MRT,[43],2.32 h
same,MRT,[44],2.64 h
same,Cmax,[45],16500 ng/mL
same,Cmax,[46],32200 ng/mL
